From patent US9376470B2, “Polypeptide having angiogenesis-inducing activity and antibacterial activity, and use thereof for medical purposes” (FunPep Inc., priority 2008, dated 2016)
Values after ≈ are worked out from the molar mass of the structure shown. Peptide text beside a SMILES is read from it.

Assays:
[1] = type: in vitro ADME; conditions: human serum, 37° C.
Protocol: Then, the stability of five polypeptides SR-1 to 5 in serum was evaluated.
In human serum (purchased from KAC Co., Ltd.), or in rat serum obtained by collecting blood from a rat, then leaving the collected blood to stand at room temperature followed by centrifugation, each of the peptides was dissolved so as to attain a final concentration of 500 μg/mL, and the obtained solutions were left to stand at 37° C. After leaving to stand for 10 min or 30 min or 60 min, these solutions were subjected to HPLC chromatogram analysis to detect peaks of the decomposition products, and calculate the ratio of the concentration of the peptides which remained in the solutions relative to the starting concentration. In addition, the half-lives of the peptides in serum were also calculated.
HPLC chromatogram analysis conditions are as follows.

[2] = system: human vascular endothelial cells and fibroblast cells (co-culture); experiment: Lumen formation with angiogenesis kit KZ-1000 (section 7); type: cell-based; conditions: for ability to form lumina: 0.5, 2.5 and 10 μg/mL; for The Area of Lumina (relative value, negative control as 100) / The Length of Lumina (relative value, negative control as 100): day 11
Protocol: Using an angiogenesis kit available from KURABO […] LTD. (Product No.: KZ-1000), lumen formation by the polypeptides was evaluated. Vascular endothelial growth factor A (VEGF-A) as a positive control, and polypeptide-free, unstimulated group as a negative control, were used.
Using a special medium for angiogenesis which was attached to the kit, each polypeptide was prepared such that the concentration thereof was respectively 0.5, 2.5 and 10 μg/mL. To a 24-well plate in which cells were plated (the cells were those obtained by co-culturing human vascular endothelial cells and fibroblast cells at an optimum concentration) which was attached to the kit, the special medium for angiogenesis containing each polypeptide was added, and the cells were cultured at 37° C. under 5% CO2. The medium was replaced with a medium containing the same additive on day 4, day 7 and day 9 of culture. On day 11 from the beginning of the culture, staining was performed using a kit for staining lumina (for CD31 antibody staining) according to the following procedure.
The media were removed, and washing was performed with Dulbecco's phosphate buffered saline (PBS(−)). Thereafter, ice-cooled 70% ethanol was added to the plate, and the cells were fixed. Each well was washed with a blocking solution (Dulbecco's phosphate buffered saline (PBS(−)) containing 1% BSA). To each well, 0.5 mL of the primary antibody for CD31 staining (mouse anti-human CD31 antibody) 4000-fold diluted with the blocking solution was added, and then the plate was incubated for 60 minutes at 37° C. After the completion of the incubation, each well was washed totally 3 times with 1 mL of the blocking solution. Then, 0.5 mL of the secondary antibody solution (goat anti-mouse IgG/alkaline phosphatase conjugate) 500-fold diluted with the blocking solution was added to each well. The plate was incubated for 60 minutes at 37° C., and thereafter each well was washed 3 times with 1 mL of distilled water. During that period, 2 tablets of BCIP/NBT were dissolved into distilled water, and the obtained solution was filtered through a filter having a pore size of […] to prepare a substrate solution. To each well, 0.5 mL of the prepared BCIP/NBT substrate solution was added, and the plate was incubated at 37° C. until the lumina turned to deep purple (typically for 5-10 minutes). After the completion of the incubation, each well was washed 3 times with 1 mL of distilled water. After washing, the washing solution was removed by aspiration, and the plate was left to stand and dry naturally. After drying, photographs of each well were taken under a microscope.
Each of the obtained images was quantified using an angiogenesis quantification software. The area and length of formed lumina observed in each visual field were measured on the basis of the scale of an angiogenesis quantification software available from KURABO […] LTD. (angiogenesis quantification software Ver 1.0), and evaluated on the basis of the ratio of the area or length of polypeptide-containing groups relative to the area or length of the negative control group.

Crl:CD (SD) rats = experiment: Ability to form granulation tissue in paper disc model; type: in vivo, rat; conditions: 10 μg/disc (250 μg/mL×40 μl/disc), subcutaneous paper disc, eight days later
Text: Then, the ability to form granulation tissue of five polypeptides SR-1 to 5 in vivo was studied. […] The prepared paper discs were embedded subcutaneously into the back of Crl:CD (SD) rats (male, 9-week old, obtained from Charles River Laboratories Japan, Inc.). Eight days later, the paper discs were taken out, and the granulation tissues around the paper discs were collected to determine their wet weight.

[3] = system: Escherichia coli ATCC 25922; experiment: microbe, parasite or virus in culture; type: cell-based; conditions: ATCC25922, 37° C., 20 hours
Protocol: ATP (%) of the antibacterial activity was measured in the same manner as mentioned above, and the “minimum inhibitory concentration (MIC)” was measured as follows. MIC is the lowest concentration of an agent that may inhibit the growth of a bacterium. MIC is used as a parameter for the efficacy of an antibacterial agent, for the strength of bacterial sensitivity, or the like. The bacteria can grow (proliferate) when the concentration is not higher than MIC, and cannot grow when the concentration is higher than MIC. […] (CLSI), but, in this Example, its measurement was carried out by a broth microdilution method in accordance with “M100-S17/M7-A7” (Performance Standards for Antimicrobial Susceptibility Testing; Seventeenth Informational Supplement, Vol. 27 No. 1) published by CLSI on January, 2007. That is, sensitivity test of agents was carried out using a microtiter plate or test tubes. The bacteria were cultured in the liquid media for 4 to 6 hours, and thereafter absorbances at A600 were measured. Bacterial suspensions were diluted with Mueller-Hinton broth (MHB) according to McFarland #0.5. Each strain was added so as to attain about 10^5 CFU/ml (final concentration). Each peptide was prepared to an optional concentration, and the solutions were serially diluted from the concentration. The polypeptide at each concentration stage was added to a microplate or test tubes, and the bacterial suspension was added thereto. […] The plate was incubated at 37° C. for 20 hours, the lowest concentration where bacterial growth was inhibited was regarded as the minimum inhibitory concentration. With respect to each strain, Escherichia coli: ATCC 25922 (Escherichia coli ATCC 25922), Pseudomonas aeruginosa: ATCC 27853 (Pseudomonas aeruginosa ATCC 27853), Staphylococcus aureus: ATCC29213 (Staphylococcus aureus ATCC29213), Klebsiella pneumoniae: JCM 1662 (Klebsiella pneumoniae JCM 1662), enterobacteria (1): JCM 1232 (Enterobacter cloacae JCM 1232), enterobacteria (2): JCM 1235 (Enterobacter aerogenes JCM 1235), and Staphylococcus epidermidis: JCM 2414 (Staphylococcus epidermidis JCM 2414), were used. […] As the concentrations of the agents in ATP assay, the concentrations as described in the Tables were used.

Compound	half-life [1] [min]	ability to form lumina [2]	The Area of Lumina (relative value, negative control as 100) ([2]; polypeptide 0.5 μg/mL)	The Length of Lumina (relative value, negative control as 100) ([2]; polypeptide 0.5 μg/mL)	The Area of Lumina (relative value, negative control as 100) ([2]; polypeptide 10 μg/mL)	The Length of Lumina (relative value, negative control as 100) ([2]; polypeptide 10 μg/mL)	granulation tissue weight (Crl:CD (SD) rats)	MIC [3] [µg/mL]
CC(C)C[C@H](NC(=O)[C@H](CCCCN)NC(=O)[C@H](CCCNC(=N)N)NC(=O)[C@H](CCCCN)NC(=O)[C@H](CC(C)C)NC(=O)[C@H](CCCNC(=N)N)NC(=O)[C@H](CCCCN)NC(=O)[C@H](CCCNC(=N)N)NC(=O)[C@H](CC(C)C)NC(=O)[C@H](CCCNC(=N)N)NC(=O)[C@H](CCCNC(=N)N)NC(=O)[C@H](CCCCN)NC(=O)[C@H](CC(C)C)NC(=O)[C@H](CCCNC(=N)N)NC(=O)[C@H](Cc1c[nH]cn1)NC(=O)[C@H](CC(C)C)NC(=O)[C@H](Cc1ccccc1)NC(=O)[C@H](CCCNC(=N)N)NC(=O)[C@H](CC(C)C)NC(=O)[C@@H](N)CCC(=O)O)C(=O)N[C@@H](CCCNC(=N)N)C(N)=O [SR-2] (H-ELRFLHRLKRRLRKRLKRKLR-NH2; N-terminus assumed)	12	high ability to form lumina	110.7	108.9	138.0	129.9	–	–
CC[C@H](C)[C@H](NC(=O)[C@H](CC(C)C)NC(=O)[C@@H](N)CCCCN)C(=O)N[C@@H](Cc1ccccc1)C(=O)N[C@@H](CC(C)C)C(=O)N[C@@H](Cc1c[nH]cn1)C(=O)N[C@@H](CCCNC(=N)N)C(=O)N[C@@H](CC(C)C)C(=O)N[C@@H](CCCCN)C(=O)N[C@@H](CCCNC(=N)N)C(=O)N[C@@H](CCSC)C(=O)N[C@@H](CCCNC(=N)N)C(=O)N[C@@H](CCCCN)C(=O)N[C@@H](CCCNC(=N)N)C(=O)N[C@@H](CC(C)C)C(=O)N[C@@H](CCCCN)C(=O)N[C@@H](CCCNC(=N)N)C(=O)N[C@@H](CCCCN)C(=O)N[C@@H](CC(C)C)C(=O)N[C@@H](CCCNC(=N)N)C(N)=O [SR-4] (H-KLIFLHRLKRMRKRLKRKLR-NH2; N-terminus assumed)	16	–	90.5	97.0	96.2	96.4	–	–
CSCC[C@H](NC(=O)[C@H](CCCNC(=N)N)NC(=O)[C@@H](N)CCCCN)C(=O)N[C@@H](CCCNC(=N)N)C(=O)N[C@@H](CCCCN)C(=O)N[C@@H](CCCNC(=N)N)C(=O)N[C@@H](CC(C)C)C(=O)N[C@@H](CCCCN)C(=O)N[C@@H](CCCNC(=N)N)C(=O)N[C@@H](CCCCN)C(=O)N[C@@H](CC(C)C)C(=O)N[C@@H](CCCNC(=N)N)C(=O)N[C@@H](CC(C)C)C(=O)N[C@@H](Cc1c[nH]c2ccccc12)C(=O)N[C@@H](Cc1c[nH]cn1)C(=O)N[C@@H](CCCNC(=N)N)C(=O)N[C@@H](CCCCN)C(=O)N[C@@H](CCCNC(=N)N)C(=O)N[C@@H](Cc1ccc(O)cc1)C(=O)N[C@@H](CCCCN)C(=O)O [SR-5] (H-KRMRKRLKRKLRLWHRKRYK-OH; N-terminus assumed)	21	–	103.4	106.2	107.7	106.8	–	–
CC[C@H](C)[C@H](NC(=O)[C@H](CC(C)C)NC(=O)[C@H](CCCCN)NC(=O)[C@H](CC(C)C)NC(=O)[C@@H](N)CCSC)C(=O)N[C@@H](Cc1ccccc1)C(=O)N[C@@H](CC(C)C)C(=O)N[C@@H](Cc1c[nH]cn1)C(=O)N[C@@H](CCCNC(=N)N)C(=O)N[C@@H](CC(C)C)C(=O)N[C@@H](CCCCN)C(=O)N[C@@H](CCCNC(=N)N)C(=O)N[C@@H](CCSC)C(=O)N[C@@H](CCCNC(=N)N)C(=O)N[C@@H](CCCCN)C(=O)N[C@@H](CCCNC(=N)N)C(=O)N[C@@H](CC(C)C)C(=O)N[C@@H](CCCCN)C(=O)N[C@@H](CCCNC(=N)N)C(=O)N[C@@H](CCCCN)C(=O)O [SR-1] (H-MLKLIFLHRLKRMRKRLKRK-OH; N-terminus assumed)	4	high ability to form lumina	94.6	97.4	156.6	149.5	largest increase in the granulation tissue weight	–
CSCC[C@H](NC(=O)[C@H](CCCNC(=N)N)NC(=O)[C@H](CCCCN)NC(=O)[C@H](CC(C)C)NC(=O)[C@H](CCCNC(=N)N)NC(=O)[C@H](Cc1c[nH]cn1)NC(=O)[C@H](CC(C)C)NC(=O)[C@H](Cc1ccccc1)NC(=O)[C@H](CCCNC(=N)N)NC(=O)[C@H](CC(C)C)NC(=O)[C@@H](N)CCC(=O)O)C(=O)N[C@@H](CCCNC(=N)N)C(=O)N[C@@H](CCCCN)C(=O)N[C@@H](CCCNC(=N)N)C(=O)N[C@@H](CC(C)C)C(=O)N[C@@H](CCCCN)C(=O)N[C@@H](CCCNC(=N)N)C(=O)N[C@@H](CCCCN)C(=O)N[C@@H](CC(C)C)C(=O)N[C@@H](CCCNC(=N)N)C(N)=O [SR-3] (H-ELRFLHRLKRMRKRLKRKLR-NH2; N-terminus assumed)	15	high ability to form lumina	100.8	101.9	118.0	122.6	largest increase in the granulation tissue weight	–
NC[C@H]1O[C@H](O[C@H]2[C@H](O)[C@@H](O[C@H]3O[C@H](CO)[C@@H](O)[C@H](N)[C@H]3O)[C@H](N)C[C@@H]2N)[C@H](N)C[C@@H]1O [TOB, tobramycin, reference compound]	–	–	–	–	–	–	–	0.25 to 1 (≈ 0.535 to 2.14 µM)
C[C@@H](O)[C@H]1C(=O)N2C(C(=O)O)=C(S[C@@H]3CN[C@H](C(=O)N(C)C)C3)[C@H](C)[C@H]12 [MEPM, meropenem, reference compound]	–	–	–	–	–	–	–	0.008 to 0.06 (≈ 0.0209 to 0.156 µM)
